Results on 8 molecules are retold here after PubChem BioAssay (NCI).

Structures are written as SMILES.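 Where inhibition never reached the appropriate level, the endpoint shown equals the highest concentration tested. Otherwise, values were interpolated linearly from a five-concentration, 48-hour dose response in 96-well plates. Abbreviation: GI50, concentration required for 50% inhibition of growth. TGI is the concentration that stops growth completely.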

Test systems include SF-295 CNS; HS 578T breast; UACC-62 melanoma; DU-145 prostate; MOLT-4 leukemia; T-47D breast; M14 melanoma; K-562 leukemia; HCC-2998 colon; HOP-92 NSCLC; NCI-H522 lung; OVCAR-5 ovarian; NCI-H23 lung; MDA-MB-231 breast; SNB-19 CNS; SK-OV-3 ovarian; SK-MEL-5 melanoma; A549 NSCLC.
What all share (assay): growth of human tumour cells (NCI), 48 h

`CC(=O)Nc1cc2c(cc1O)CC[C@@H]1[C@@H]2CC[C@]2(C)[C@@H](O)CC[C@@H]12`: the TGI is above 100 µM in the experiment with SF-295 CNS; above 100 µM in the experiment on HS 578T breast; above 100 µM in the experiment on UACC-62 melanoma; above 100 µM with DU-145 prostate; above 100 µM in the experiment on MOLT-4 leukemia; 95.8 µM in the experiment with T-47D breast. Also, the TGI was above 100 µM in the experiment with M14 melanoma; above 100 µM with K-562 leukemia; 82.4 µM in the experiment on HCC-2998 colon; above 100 µM with HOP-92 NSCLC; 81.5 µM in the experiment with NCI-H522 lung; above 100 µM in the experiment with OVCAR-5 ovarian. The TGI is above 100 µM in the experiment with NCI-H23 lung; above 100 µM in the experiment on MDA-MB-231 breast; above 100 µM with SNB-19 CNS; above 100 µM with SK-OV-3 ovarian; 59.8 µM in the experiment on SK-MEL-5 melanoma; above 100 µM in the experiment on A549 NSCLC. Besides, the GI50 is 31.2 µM in the experiment on UACC-62 melanoma and above 100 µM with DU-145 prostate.

Regarding `N#CC(C#N)=C(N)/C(C#N)=C/c1cc(O)c(O)c(Br)c1`, the TGI in the experiment with SF-295 CNS, with HS 578T breast, in the experiment on UACC-62 melanoma, in the experiment on DU-145 prostate, in the experiment on MOLT-4 leukemia and in the experiment with T-47D breast was above 100 µM throughout. Moreover, the TGI in the experiment on M14 melanoma, in the experiment with K-562 leukemia, with HCC-2998 colon, in the experiment on HOP-92 NSCLC, in the experiment on NCI-H522 lung and with OVCAR-5 ovarian was above 100 µM in each case. Also, the TGI in the experiment with NCI-H23 lung, in the experiment on MDA-MB-231 breast, with SNB-19 CNS, in the experiment with SK-OV-3 ovarian, in the experiment on SK-MEL-5 melanoma and in the experiment with A549 NSCLC was above 100 µM in each case.

Turning to `CC1=CCC[C@@H]2[C@@](C)(Cc3cc(O)ccc3O)[C@H](C)CC[C@@]12C`, the TGI with SF-295 CNS was 20 µM; with HS 578T breast, 20.6 µM; in the experiment on UACC-62 melanoma, 25.1 µM; with DU-145 prostate, 27.1 µM; with MOLT-4 leukemia, 15 µM; with T-47D breast, 20.1 µM. The TGI in the experiment on M14 melanoma was 15.7 µM; in the experiment with K-562 leukemia it was 36 µM; with HCC-2998 colon, 22.5 µM; in the experiment with HOP-92 NSCLC, 15.2 µM; in the experiment on NCI-H522 lung, 14.1 µM; in the experiment on OVCAR-5 ovarian it was 28.3 µM. Moreover, the TGI in the experiment with NCI-H23 lung turned out to be 14.1 µM; in the experiment on MDA-MB-231 breast it was 30.2 µM; in the experiment on SNB-19 CNS it was 21.5 µM; in the experiment on SK-OV-3 ovarian it was 26 µM; in the experiment with SK-MEL-5 melanoma, 19.1 µM; with A549 NSCLC it was 17.6 µM.

For `COc1cc(C(N)=O)cc(NC(=O)/C=C/c2ccccc2)c1OC`, the TGI with SF-295 CNS, in the experiment with HS 578T breast, in the experiment with UACC-62 melanoma, in the experiment with DU-145 prostate, with MOLT-4 leukemia and in the experiment with T-47D breast was above 100 µM each time. The TGI in the experiment with M14 melanoma, in the experiment on K-562 leukemia, in the experiment on HCC-2998 colon, in the experiment with HOP-92 NSCLC, in the experiment with NCI-H522 lung and with OVCAR-5 ovarian was above 100 µM each time. For the same molecule, the TGI with NCI-H23 lung, in the experiment with MDA-MB-231 breast, with SNB-19 CNS, in the experiment on SK-OV-3 ovarian, in the experiment with SK-MEL-5 melanoma and with A549 NSCLC was above 100 µM throughout.

With `CCCC(=O)OC[n+]1cccc(-c2c(COC(=O)NC(C)C)c(COC(=O)NC(C)C)c3n2CCC3)c1`, the TGI was above 100 µM in the experiment with SF-295 CNS; above 100 µM in the experiment with HS 578T breast; 61.8 µM in the experiment on UACC-62 melanoma; above 100 µM in the experiment with DU-145 prostate; above 83.3 µM with MOLT-4 leukemia; above 100 µM with T-47D breast. Moreover, the TGI was above 100 µM in the experiment on M14 melanoma; above 100 µM with K-562 leukemia; above 100 µM in the experiment on HCC-2998 colon; above 88.7 µM in the experiment on HOP-92 NSCLC; 71.8 µM in the experiment on NCI-H522 lung; above 100 µM with OVCAR-5 ovarian. The TGI with NCI-H23 lung, with MDA-MB-231 breast, in the experiment on SNB-19 CNS, with SK-OV-3 ovarian, with SK-MEL-5 melanoma and in the experiment on A549 NSCLC was above 100 µM throughout.

For `COC(=O)C(Cc1ccccc1I)C1=CCC2(CC1)OCCO2` (stereo unspecified), the TGI in the experiment with SF-295 CNS was above 100 µM; with HS 578T breast, 77.5 µM; with UACC-62 melanoma, 59.3 µM; with DU-145 prostate it was above 100 µM; in the experiment on MOLT-4 leukemia it was 56.8 µM; in the experiment with T-47D breast, 39.7 µM. The TGI in the experiment with M14 melanoma was 50.4 µM; with K-562 leukemia it was above 100 µM; with HCC-2998 colon, above 100 µM; in the experiment on HOP-92 NSCLC it was 97.2 µM; in the experiment with NCI-H522 lung, 53.7 µM; with OVCAR-5 ovarian it was 54.5 µM. For the same molecule, the TGI in the experiment with NCI-H23 lung was 95.1 µM; in the experiment with MDA-MB-231 breast it was above 100 µM; in the experiment on SNB-19 CNS, 96.8 µM; in the experiment on SK-OV-3 ovarian, above 100 µM; with SK-MEL-5 melanoma, 34.1 µM; in the experiment with A549 NSCLC it was 82.8 µM.

Regarding `CC(=O)NCCc1c[nH]c2ccc(Cl)cc12`, the TGI in the experiment on SF-295 CNS, in the experiment with HS 578T breast, with UACC-62 melanoma, in the experiment on DU-145 prostate, in the experiment with MOLT-4 leukemia and in the experiment on T-47D breast was above 100 µM each time. In addition, the TGI in the experiment on M14 melanoma, in the experiment on K-562 leukemia, with HCC-2998 colon, with HOP-92 NSCLC, in the experiment on NCI-H522 lung and in the experiment on OVCAR-5 ovarian was above 100 µM each time. Further, the TGI in the experiment on NCI-H23 lung, in the experiment on MDA-MB-231 breast, in the experiment on SNB-19 CNS, with SK-OV-3 ovarian, in the experiment with SK-MEL-5 melanoma and in the experiment on A549 NSCLC was above 100 µM throughout.

In the case of `CN(C)CCCNc1nnc(NCCCN(C)C)c2c(=O)c3sccc3[nH]c12`, the TGI with SF-295 CNS was above 54 µM; in the experiment on HS 578T breast, above 88.6 µM; in the experiment with UACC-62 melanoma, 23.7 µM; in the experiment on DU-145 prostate it was above 100 µM; in the experiment with MOLT-4 leukemia it was 14.4 µM; in the experiment on T-47D breast, above 51.5 µM. In addition, the TGI is 23.9 µM in the experiment on M14 melanoma; above 34.7 µM in the experiment with K-562 leukemia; 23.7 µM in the experiment with HCC-2998 colon; above 100 µM in the experiment with HOP-92 NSCLC; 17.3 µM in the experiment on NCI-H522 lung; above 85.1 µM in the experiment on OVCAR-5 ovarian. For the same molecule, the TGI is above 100 µM in the experiment on NCI-H23 lung; above 30.7 µM with MDA-MB-231 breast; above 100 µM in the experiment on SNB-19 CNS; above 100 µM in the experiment on SK-OV-3 ovarian; 16 µM in the experiment on SK-MEL-5 melanoma; above 78.9 µM in the experiment on A549 NSCLC.
